# Laboratory results published in patent US7745647B2, “Diterpenes from the fruiting body of Antrodia camphorata and pharmaceutical compositions thereof” (Kang Jian Biotech Corp, Ltd., priority 2006, dated 2010).
# System: primary cultures of neonatal cortical neurons exposed to 5 μM Aβ25-35
# Experiment: Protection of cortical neurons against Aβ25-35-induced cell death (MTT reduction analysis)
# Type: cell-based, rat
# Conditions: for cell death (%): then 5 μM Aβ25-35 for 40 h, MTT, mean ± S.D., three experiments; for protected neurons from Aβ damage by: 5 μM Aβ
# Description: In this study, primary cultures of neonatal cortical neurons from the cerebral cortex of Harlan Sprague-Dawley rat pups at postnatal day were used as target cells. Primary cultures of neonatal cortical neurons were prepared from the cerebral cortex of Harlan Sprague-Dawley rat pups at postnatal day 1. Briefly, each pup was decapitated and the cortex was digested in 0.5 mg/mL papain at 37° C. for 15 min. The tissue was dissociated in Hibernate A medium (containing B27 supplement) by aspirating trituration to separate cells. Cells were plated (at the density of 5×10^4 cells/cm^2) onto poly-D-lysine-coated dishes and maintained in Neurobasal medium containing B27 supplement, 10 units/mL penicillin, […], and 0.5 mg/mL glutamine (5% CO2/9% O2) for 3 days. Cells were then exposed to cytosine-β-D-arabinofuranoside (5 μM) for 1 day to inhibit proliferation of non-neuronal cells. The cells were used for the experiment on the fifth day.
# The effects of isolated pure compounds on Aβ25-35-treated cell apoptosis were determined by a MTT method for evaluating neuroprotective activity. The mitochondrial dehydrogenase activity was assayed by reduction cleavage of the tetrazolium salt MTT (3-[4,5-dimethylthiazol-2-yl]-2,5-diphenyltetrazolium bromide), to yield a purple dye with absorbance read at about 570 nm. Results are expressed as percentage of control absorbance. Cortical neurons prepared as described above were incubated with vehicle (0.1% DMSO) or various concentrations of the compounds for 2 h then exposed to 5 μM Aβ for 40 h. The cell viability was assessed by MTT reduction analysis. Cells were incubated with minimum essential medium containing 0.5 mg/mL MTT for 1 h. The medium was aspirated, and the formazan particle was dissolved with DMSO. The absorbance at 600 nm was measured using an enzyme-linked immunosorbent assay reader. Results are expressed as means±S.D. and were analyzed by ANOVA with post hoc multiple comparison with a Bonferroni test.
Compound,cell death (%) (compound 1 μM for 2 h),cell death (%) (compound 5 μM for 2 h),cell death (%) (compound 10 μM for 2 h),cell death (%) (compound 20 μM for 2 h),protected neurons from Aβ damage by (at concentration of 10 μM),protected neurons from Aβ damage by (at concentration of 5 μM),protected neurons from Aβ damage by (at concentration of 20 μM)
Ac-DEVD-CHO [reference compound],35.8 ± 3.5%,30.2 ± 5.5 %,24.5 ± 4.6 %,23.1 ± 1.6 %,,,
"C=C1CC[C@H]2[C@@](C)(CO)CCC[C@]2(C)[C@H]1CCC1=CCOC1=O [Compound 4, 19-hydroxylabda-8(17),13-dien-16,15-olide]",41.2 ± 3.4%,34.8 ± 3.2%,28.9 ± 8.1 %,32.6 ± 7.2 %,28.9%,,
"C=C1CCC2[C@@](C)(CO)CCC[C@]2(C)[C@H]1CCC1CCOC1=O (some centres unmarked) [Compound 1, 19-hydroxylabda-8(17)-en-16,15-olide]",34.4 ± 3.4%,25.3 ± 5.7 %,28.1 ± 5.7 %,30.8 ± 5.0 %,,25.3%,
"C=C1CCC2C(C)(CO)C(O)CCC2(C)C1C=CC1=CCOC1=O (centres unmarked) [Compound 5, 14-deoxy-11,12-didehydroandrographolide]",40.7 ± 3.3%,35.7 ± 1.9%,30.8 ± 5.7 %,29.5 ± 5.0 %,,,29.5%
"C=C1CC[C@@H]2[C@](C)(CC[C@H](O)[C@]2(C)CO)[C@H]1/C=C/[C@@H]1CCOC1=O [Compound 2, 3β,19-dihydroxylabda-8(17), 11E-dien-16,15-olide]",43.8 ± 9.5%,34.9 ± 2.6%,29.5 ± 6.4 %,26.3 ± 9.4 %,29.5%,,
"C=C1CC[C@@H]2[C@](C)(CC[C@H](O)[C@]2(C)CO)[C@H]1/C=C/C1CCOC1=O (stereo partly drawn) [Compound 3, 13-epi-3β,19-dihydroxylabda-8(17), 11E-dien-16,15-olide]",45.1 ± 3.5%,39.6 ± 3.4%,36.7 ± 8.7%,29.3 ± 10.6 %,36.7%,,
